Reference: patent US11833149B2, “Pulse dosing regimen and methods of treatment” (OSI Pharmaceuticals, LLC, priority 2016, dated 2023)
Entries after “also recorded” stand apart in the source; their conditions may differ.

Key:
EGFR-mutant lung cancers = assay: Phase 1 study of pulse-continuous erlotinib: response (RECIST 1.1) and progression-free survival; format: in vivo, patients
Experimental: (§1) The study was registered at clinicaltrials.gov (NCT01967095). […] All patients provided written informed consent.
Prior cytotoxic chemotherapy was allowed. Patients were required to have measurable disease per RECIST (Response Evaluation Criteria in Solid Tumours), version 1.1). […] Patients with clinically stable brain metastases, either treated or untreated, were eligible.
Response assessments: Response to therapy was assessed by interval imaging every 6 weeks with a CT scan with response evaluated per RECIST 1.1. After six cycles on treatment, patients could reduce the radiographic assessments to every 4 cycles (12 weeks).
Statistical Analysis: Descriptive statistics were used to summarize the clinical characteristics of the patients. Progression-free survival was estimated using the Kaplan-Meier method, and defined as the time from start of study therapy until progression or death. […] Response rates were calculated using binomial proportions and exact 95% CIs. All statistical analyses were performed using R 3.2.2 (R Development Core Team) including the “survival” and “Hmisc” packages.

[1] = cited from earlier work
[2] = Phase 1 study: pharmacokinetic analysis of plasma (LC-MS/MS); format: in vivo, patients
Experimental: Pharmacokinetic analysis: Whole-blood samples for plasma were collected at prescheduled time points for pharmacokinetic (PK) analysis. Plasma levels of erlotinib were determined using a validated liquid chromatography-tandem mass spectrometry assay. […] MS detection was using an AB SCIEX API 4000 triple quadrupole mass spectrometer operating in positive ion electrospray ionization (ESI) mode. Standard PK parameters were calculated using a noncompartmental method (WiNNonlin, Pharsight).

[3] = in vivo
Experimental: (§2) Toxicity assessments: Patients were assessed five times during cycle 1 (28 days) and then every 21 days thereafter. Patient history, physical examination, complete blood count and serum chemistries were performed at each visit. Toxicity was graded according to the National Cancer Institute Common Terminology Criteria for Adverse Events (NCI CTCAE), version 4.

[4] = Phase 1 dose-escalation study of pulse-continuous erlotinib: DLT, MTD, adverse events
Experimental: as §2

[5] = system: EGFR-mutant lung cancers with CNS involvement; details: median dose erlotinib 1500 mg once weekly (Grommes et al.); cited from earlier work
brain metastases = assay: Phase 1 study of pulse-continuous erlotinib: central nervous system activity; format: in vivo, patients
Text: as §1
Central nervous system activity: A brain MRI was required at enrollment.

[6] = cited from earlier work; remark: listed apart in the source
[7] = pH of approximately 2; over the pH range of 1.4 to 9.6; cited from earlier work
[8] = erlotinib 1500 mg once weekly (Clarke et al.)

## C#Cc1cccc(Nc2ncnc3cc(OCCOC)c(OCCOC)cc23)c1 [erlotinib, N-(3-ethynylphenyl)-6,7-bis(2-methoxyethoxy)-4-quinazolinamine]
EGFR-mutant lung cancers; 34 patients
  patients with complete response: one
  patients with confirmed partial responses: Twenty-four
EGFR-mutant lung cancers; 95% CI 5.8-15.4 months
  median progression-free survival: 9.9 months
EGFR-mutant lung cancers; intent to treat, 34 patients, 95% CI 60-84%
  overall response rate: 74%
EGFR-mutant lung cancers; patients with radiographic assessment
  change in the sum of target lesions: All patients had a decrease
[1]; once weekly, unselected patients with advanced lung cancers (Milton et al.), MTD not reached
  maximum tolerated dose (MTD): ≥ 2000 mg
[1]; twice-weekly pulse dose (Chia et al.), DLT of rash at higher dose levels
  MTD: 1000 mg
[2]; 600 mg to 1,350 mg, Cycle 1
  change of peak plasma concentration with increasing pulse doses: no significant increases
[2]; 4 hr post-administration, Week 2
  range of peak plasma concentration: 2,600-9355 ng/mL
[2]; 4 hr post-administration, after the second day of weekly pulse dose at Week 2
  median peak plasma concentration: 5,393 ng/mL
[2]; before the pulse dosing at the start of week 4
  median plasma trough concentration: 435 ng/mL
[2]; start of week 4
  median plasma trough concentration: 1.1 µM
  range of plasma trough concentration: 29 to 1655 ng/mL
[3]; human
  ALT elevated Grade 1 (% of patients): (18%)
  ALT elevated Grade 1 (patients): 6
  ALT elevated Grade 2 (% of patients): (3%)
  ALT elevated Grade 2 (patients): 1
  ALT elevated Grade 3 (% of patients): (3%)
  ALT elevated Grade 3 (patients): 1
  ALT elevated Grade 4 (patients): 0
  ALT elevated Total (any grade) (% of patients): (24%)
  ALT elevated Total (any grade) (patients): 8
  AST increased Grade 1 (% of patients): (15%)
  AST increased Grade 1 (patients): 5
  AST increased Grade 2 (% of patients): (3%)
  AST increased Grade 2 (patients): 1
  AST increased Grade 3 (patients): 0
  AST increased Grade 4 (patients): 0
  AST increased Total (any grade) (% of patients): (18%)
  AST increased Total (any grade) (patients): 6
  Alopecia Grade 1 (% of patients): (21%)
  Alopecia Grade 1 (patients): 7
  Alopecia Grade 2 (patients): 0
  Alopecia Grade 3 (patients): 0
  Alopecia Grade 4 (patients): 0
  Alopecia Total (any grade) (% of patients): (21%)
  Alopecia Total (any grade) (patients): 7
  Anemia Grade 1 (% of patients): (6%)
  Anemia Grade 1 (patients): 2
  Anemia Grade 2 (% of patients): (3%)
  Anemia Grade 2 (patients): 1
  Anemia Grade 3 (% of patients): (3%)
  Anemia Grade 3 (patients): 1
  Anemia Grade 4 (patients): 0
  Anemia Total (any grade) (% of patients): (12%)
  Anemia Total (any grade) (patients): 4
  Anorexia Grade 1 (% of patients): (9%)
  Anorexia Grade 1 (patients): 3
  Anorexia Grade 2 (% of patients): (6%)
  Anorexia Grade 2 (patients): 2
  Anorexia Grade 3 (patients): 0
  Anorexia Grade 4 (patients): 0
  Anorexia Total (any grade) (% of patients): (15%)
  Anorexia Total (any grade) (patients): 5
  Bilirubin increased Grade 1 (% of patients): (12%)
  Bilirubin increased Grade 1 (patients): 4
  Bilirubin increased Grade 2 (% of patients): (15%)
  Bilirubin increased Grade 2 (patients): 5
  Bilirubin increased Grade 3 (% of patients): (6%)
  Bilirubin increased Grade 3 (patients): 2
  Bilirubin increased Grade 4 (patients): 0
  Bilirubin increased Total (any grade) (% of patients): (32%)
  Bilirubin increased Total (any grade) (patients): 11
  Diarrhea Grade 1 (% of patients): (71%)
  Diarrhea Grade 1 (patients): 24
  Diarrhea Grade 2 (% of patients): (3%)
  Diarrhea Grade 2 (patients): 1
  Diarrhea Grade 3 (% of patients): (12%)
  Diarrhea Grade 3 (patients): 4
  Diarrhea Grade 4 (patients): 0
  Diarrhea Total (any grade) (% of patients): (85%)
  Diarrhea Total (any grade) (patients): 29
  Dry skin Grade 1 (% of patients): (29%)
  Dry skin Grade 1 (patients): 10
  Dry skin Grade 2 (patients): 0
  Dry skin Grade 3 (patients): 0
  Dry skin Grade 4 (patients): 0
  Dry skin Total (any grade) (% of patients): (29%)
  Dry skin Total (any grade) (patients): 10
  Fatigue Grade 1 (% of patients): (24%)
  Fatigue Grade 1 (patients): 8
  Fatigue Grade 2 (% of patients): (12%)
  Fatigue Grade 2 (patients): 4
  Fatigue Grade 3 (patients): 0
  Fatigue Grade 4 (patients): 0
  Fatigue Total (any grade) (% of patients): (35%)
  Fatigue Total (any grade) (patients): 12
  Mucositis Grade 1 (% of patients): (24%)
  Mucositis Grade 1 (patients): 8
  Mucositis Grade 2 (% of patients): (9%)
  Mucositis Grade 2 (patients): 3
  Mucositis Grade 3 (% of patients): (3%)
  Mucositis Grade 3 (patients): 1
  Mucositis Grade 4 (patients): 0
  Mucositis Total (any grade) (% of patients): (35%)
  Mucositis Total (any grade) (patients): 12
  Nausea Grade 1 (% of patients): (29%)
  Nausea Grade 1 (patients): 10
  Nausea Grade 2 (% of patients): (9%)
  Nausea Grade 2 (patients): 3
  Nausea Grade 3 (% of patients): (6%)
  Nausea Grade 3 (patients): 2
  Nausea Grade 4 (patients): 0
  Nausea Total (any grade) (% of patients): (44%)
  Nausea Total (any grade) (patients): 15
  Paronychia Grade 1 (% of patients): (12%)
  Paronychia Grade 1 (patients): 4
  Paronychia Grade 2 (% of patients): (6%)
  Paronychia Grade 2 (patients): 2
  Paronychia Grade 3 (patients): 0
  Paronychia Grade 4 (patients): 0
  Paronychia Total (any grade) (% of patients): (18%)
  Paronychia Total (any grade) (patients): 6
  Pruritis Grade 1 (% of patients): (32%)
  Pruritis Grade 1 (patients): 11
  Pruritis Grade 2 (patients): 0
  Pruritis Grade 3 (patients): 0
  Pruritis Grade 4 (patients): 0
  Pruritis Total (any grade) (% of patients): (32%)
  Pruritis Total (any grade) (patients): 11
  Rash Grade 1 (% of patients): (62%)
  Rash Grade 1 (patients): 21
  Rash Grade 2 (% of patients): (24%)
  Rash Grade 2 (patients): 8
  Rash Grade 3 (% of patients): (3%)
  Rash Grade 3 (patients): 1
  Rash Grade 4 (patients): 0
  Rash Total (any grade) (% of patients): (88%)
  Rash Total (any grade) (patients): 30
  Vomiting Grade 1 (% of patients): (26%)
  Vomiting Grade 1 (patients): 9
  Vomiting Grade 2 (% of patients): (3%)
  Vomiting Grade 2 (patients): 1
  Vomiting Grade 3 (% of patients): (3%)
  Vomiting Grade 3 (patients): 1
  Vomiting Grade 4 (patients): 0
  Vomiting Total (any grade) (% of patients): (32%)
  Vomiting Total (any grade) (patients): 11
  patients removed for diarrhea: 2
  patients removed for hyperbilirubinemia: 1
  patients removed for mucositis: 1
  patients removed for possible pneumonitis: 1
  patients removed for transaminitis: 1
[3]
  patients removed from the study for toxicity: Six
  patients requiring a dose reduction of the pulse dose: three of sixteen
  tolerability: well tolerated
[4]; all 34 patients
  deaths on study: no deaths
  grade four or five toxicities: No grade four or five toxicities
[4]; pulse on days 1 and 2 with 50 mg erlotinib on days 3 to 7
  MTD (pulse dose): 1200 mg
[5]
  patients with partial response in the CNS: Six of nine
Brain metastases; 6 patients with untreated brain metastases
  patients with evidence of tumor regression in the CNS: 6
Brain metastases; 16 patients with CNS imaging within three months of coming off study for progression
  radiographic evidence of new or progressing brain metastases: none
Brain metastases; all patients
  CNS progression on study treatment: none of the patients; also recorded: No patients
[6]; Togashi et al.
  cerebrospinal fluid (CSF) concentration as % of plasma concentration: 3-5%
[6]; [8]
  concurrent CSF concentration: 120 nM
  peak plasma concentration: 11,300 nM

## C#Cc1cccc(Nc2ncnc3cc(OCCOC)c(OCCOC)cc23)c1.Cl [Erlotinib hydrochloride]
[7]
  maximal aqueous solubility: approximately 0.4 mg/mL

## C#Cc1cccc(Nc2ncnc3cc(OCCOC)c(OCCO)cc23)c1 [OSI-420]
[2]; in vivo
  dose-dependence of metabolite with increasing pulse doses of erlotinib: no significant dose-dependence
